Experimental data: publication PMC12245127, “Cancer Specific CAIX‐Targeting Supramolecular Lysosome‐Targeting Chimeras (Supra‐LYTAC) for Targeted Protein Degradation” (Advanced Science, 2025)

Tests used:
Type in all cases: cell-based
HeLa = assay: Endocytosis pathway analysis with inhibitors; conditions: inhibitor pre-incubated 30 min (400 mM sucrose, 30 μM EIPA), then 100 μM Py-FFK-Az, 5 μM Py-FFK-Biotin, 400 nM streptavidin-FITC 3 h, flow cytometry, n = 3
Description: We next examined the cellular localization of Supra‐LYTAC using CLSM. […] To understand the lysosomal trafficking mechanism, we conducted inhibitor studies. […]
fluorometer (F-7000, Hitachi). The ratio for I1 band and I3 band was plotted to obtain CAC […]
S.1.12. Transmission electron microscopy study. To confirm the peptide self-assembly nanostructures, 50 μM of peptide solution in water was prepared. Then, 8 μL was dropped onto a copper grid. After the droplet is fully dried, it was repeated once more. After that, negative staining was achieved using 2 wt% uranyl acetate solution for 10 min in RT. After washing using DI water, the self-assembly morphology was visualized using JEM-1400 by JEOL and […]
To visualize peptide-protein nanocomplex, streptavidin stock solution was added into the solution consisting of 50 μM peptide solution (mixture of Py-FFK-Az and Py-FFK-Biotin in 20:1 ratio) to obtain 400 nM and 10 μM solutions. Then, TEM sample was prepared with the same protocol of peptide self-assembly visualization.
S.1.13. Circular dichroism spectroscopy. 100 μM peptide solution was initially prepared.
The solution was transferred into quartz cell with 1 mm path length (Hellma), and CD spectrum was recorded using CD spectrometer (J-815, JASCO) under the flow of nitrogen.
S.1.14. FT-IR spectroscopy. 1 mM peptide solution was prepared for FT-IR spectroscopy.
The solution was measured using L1600300 Spectrum TWO LiTa FT-IR spectrometer by […]
S.1.15. Cell culture. HeLa, 4T1, and NIH/3T3 were supplied from Korean Cell Line Bank. […]
After growing for 24 h, Py-FFK-Az, Py-FFK-Biotin, Py-GGK-Az, Py-GGK-Biotin was treated with different concentrations. […] After 4 h incubation, MTT formazan was solubilized by SDS solution, and monitored using SpectraMax M5e Multi Mode Microplate Reader by Molecular Devices.
S.1.17. […] After that, the cells were washed and analyzed using FACSverse (Becton Dickinson And Company).
S.1.18. […] After that, the cells were washed and analyzed using confocal laser scanning microscopy (LSM780 and 880 by ZEISS). […]

PD‐L1 [1] = target: T1, PD‐L1 (Homo sapiens, UniProt Q9NZQ7); assay: Western blot analysis for PD-L1 degradation, HeLa; conditions: 24 h, 1:1 ratio (100 μM each)
T1 construct: endogenous in cells; host or cells: HeLa
Description: (§1) We next evaluated PD‐L1 degradation using Western blot (WB) analysis. […] Initially, we verified BMS‐conjugated peptides were non‐toxic by MTT assay (Figure S37, Supporting Information). We then assessed PD‐L1 degradation in HeLa cells after 24‐h treatment with 100 µM Py‐FFK‐Az and varying concentrations of Py‐FFK‐BMS. […] To further assess the effect for Py‐FFK‐Az, we conducted WB analysis with 100 µM Py‐FFK‐BMS at varying concentration for Py‐FFK‐Az. […] PD‐L1 degradation was inhibited by co‐treatment with CAIX inhibitor, confirming the role of CAIX‐mediated endocytosis in lysosomal uptake (Figure S39, Supporting Information). To further validate lysosome‐dependent protein degradation, we conducted WB analysis with chloroquine, a lysosomal inhibitor. […] Furthermore, PD‐L1 fluorescence was restored when chloroquine was co‐administered with the 1:1 Py‐FFK‐Az:Py‐FFK‐BMS mixture, confirming lysosomal involvement in PD‐L1 degradation. […]
(§2) μM Py-FFK-Az and 5μM Py-FFK-Biotin was co-incubated with 400 nM streptavidin-FITC. […]
(§3) as counterstaining agent. IF signals were analyzed using confocal laser scanning microscopy […]
(§4) S.1.22. […] Tumor growth was monitored using the digital caliper. We calculated the tumor volume using the formula [volume = (tumor length) × (tumor width)2/2]. […] The tumor size and body weight were measured and […]
(§5) S.1.23. […] All the data are expressed as mean ± standard deviation (SD). […]

PD‐L1 [2] = target: T1, PD‐L1; assay: Immunofluorescence analysis of PD-L1, HeLa; conditions: 24 h
Description: as §1, §2, §3, §4, §5

T1 sequence (Q9NZQ7 19-290): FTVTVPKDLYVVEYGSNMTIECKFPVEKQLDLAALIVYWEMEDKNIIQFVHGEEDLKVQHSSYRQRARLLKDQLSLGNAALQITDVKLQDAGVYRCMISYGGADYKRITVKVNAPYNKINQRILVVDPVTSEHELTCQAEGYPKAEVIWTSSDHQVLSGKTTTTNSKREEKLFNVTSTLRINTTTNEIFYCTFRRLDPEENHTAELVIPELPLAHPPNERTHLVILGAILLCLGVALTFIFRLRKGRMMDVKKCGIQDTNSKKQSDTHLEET

SMILES	effect of inhibitor on POI uptake by Supra-LYTAC (HeLa)	effect of inhibitor co-treatment on PD-L1 degradation by Py-FFK-Az and Py-FFK-BMS (WB) (PD‐L1 [1])	PD-L1 immunofluorescence on chloroquine co-administration with 1:1 Py-FFK-Az:Py-FFK-BMS (PD‐L1 [2])
CC(=O)Nc1nnc(S(N)(=O)=O)s1 [acetazolamide]	significantly reduced	inhibited	–
CCN(CC)CCCC(C)Nc1ccnc2cc(Cl)ccc12 (stereo not drawn) [chloroquine]	–	significantly reduced PD‐L1 degradation	restored
OC[C@H]1O[C@@](CO)(O[C@H]2O[C@H](CO)[C@@H](O)[C@H](O)[C@H]2O)[C@@H](O)[C@@H]1O [sucrose]	substantially reduced	–	–
CCN(c1nc(N)c(C(=O)NC(=N)N)nc1Cl)C(C)C [EIPA]	no effect	–	–
